# Measured values as given in US6583132B1, “Oxidant scavengers” (Duke University, priority 1993, dated 2003).
# Experiments:
# [1] = Peroxynitrite-induced oxidation of dihydrorhodamine 123; type: biochemical; conditions: peroxynitrite 5 μM; 10 μM dihydrorhodamine 123; 10 min, 22° C.; read-out: concentration giving 50% inhibition of oxidation of dihydrorhodamine 123 to rhodamine 123
# Description: Measurement of peroxynitrite-induced oxidation of dihydrorhodamine 123: The peroxynitrite-dependent oxidation of dihydrorhodamine 123 to rhodamine 123, was measured based on the principles of the method described by Kooy et al, Free Radical Biol. Med. 16:149 (1994). Briefly, peroxynitrite at 5 μM was added into phosphate-buffered saline containing 10 μM dihydrorhodamine 123, in the absence of presence of MnTBAP (3-100 μM). After a 10 min incubation at 22° C., the fluorescence of rhodamine 123 was measured using a Perkin-Elmer fluorimeter (Model LS50B: Perkin-Elmer, Norwalk, Conn.) at an excitation wavelength of 500 mn, emission wavelength of 536 nm (slit widths 2.5 and 3.0 nm, respectively).
# aconitase = experiment: Aconitase activity in cortical cell lysates; type: cell-based, rat; conditions: 200 μM MnTBAP
# Description: Tissue culture: Mixed neuronal and glial cultures were prepared from embryonic day-18 rat cerebral cortices (Sprague-Dawley, Zivic Miller). Briefly, the cerebral cortices were dissected and enzymatically dissociated by incubation in Ca^++-, Mg^++-free Hank's balanced salt solution (HBSS) supplemented with 10 mM HEPES and 0.25% trypsin for 20 min. at 37° C. The tissue was rinsed and dispersed into single cell suspension by gentle passage through a fire polished Pasteur pipette. The cell suspension was centrifuged and resuspended in Minimum Essential Media (MEM), containing Earle's salts supplemented with 3 g/L glucose, 5% horse serum and 5% fetal bovine serum (growth media). The cells were plated in poly-D-lysine-coated multi-well plates: 12-well plates for aconitase measurement, and 24 well plates for toxicity experiments. Cells were maintained at 37° C. in a humidified incubator with 5% CO2/95% air in growth media. Media was not replaced so as to reduce glial overgrowth and neuronal loss. Mature cells (14-17 days in vitro) were used for all experiments.
# Cell treatment: The growth media was replaced with MEM supplemented with 25 mM glucose (MEM-g). For both neurotoxicity studies and aconitase measurement, cells were incubated in the designated treatment for the indicated length of time at 37° C. Unless otherwise specified, antagonists or SOD-mimetics were added 15 min. prior to agonists. For measurement of neurotoxicity, cells were incubated with treatments for 18 hr at 37° C. in MEM-g. To access the ability of antagonists to inhibit acute NMDA toxicity or rescue cells from an ongoing NMDA insult, an alternate paradigm of NMDA treatment was used in addition to the one describe above. In this paradigm, growth media was replaced with HBSS^+ (Ca^++-, Mg^++-free Hank's Balanced Salt Solution supplemented with 2 mM CaCl2, 1 mM NaHCO3, 10 mM HEPES and 5 μM glycine), cells were treated with vehicle or 100 μM NMDA for 15 min. after which HBSS^+ was replaced with MEM-g and cells were returned to the incubator for 18 additional hrs. Antagonsists or SOD-mimetics were added to the cells 15 min. before NMDA exposure or 15, 30 or 60 min. following final media replacement. For determination of Ca^++-dependence, cells were incubated in HBSS^+ with no added Ca^++. When kainate (KA) was used as an agonist, 100 μM D-APV was routinely included to block secondary NMDA receptor activation. Catalase (100 U/ml) was always included when xanthine plus xanthine oxidase (X+XO) was used as a treatment to rule out the contribution of hydrogen peroxide.
# Aconitase measurement: For the measurement of aconitase, following treatment with agents, media was removed and cells lysed in ice-cold 50 mM, Tris/HCl, pH 7.4 containing 0.6 mM MnCl2, 1 mM L-cysteine, 1 mM citrate and 0.5% Triton-X 100. The aconitase activity of cell lysates was measured spectrophotometrically by monitoring the formation of cis-aconitate from isocitrate at 240 nm in 50 mM Tris/HCl, pH 7.4, containing 0.6 mM MnCl2 and 20 mM isocitrate at 25° C. (Kreb and Holzach, Biochem. J. 52:527 (1952); Gardner and Fridovich, J. Biol. Chem. 267:8757 (1992)). […] Aconitase activity in cortical cell lysates was inhibited by 0.1 mM potassium ferricyanide or by boiling of sample.
# [2] = tested on: descending thoracic aorta rings; experiment: NO-induced vascular relaxations of aortic rings; parameters: species or system New Zealand white rabbits; conditions: 100 μM; NO 75-300 nM
# Description: Measurement of NO-induced vascular relaxations: New Zealand white rabbits weighing 3-4 kg were anesthetized with pentobarbital (30 mg/kg). The descending thoracic aorta was isolated, removed, cleaned and placed in Krebs buffer (pH 7.5). Vessels were cut into 5 mm rings and hung on stirrups connected to force transducers. Rings were suspended in 20 ml jacketed baths which were kept at 37° C. and bubbled with 95% O2 and 5% CO2. Rings were equilibrated with 2 g resting tension for 1 h before use and contracted with phenylephrine. Saturated NO solution was prepared by bubbling compressed NO gas through a NaOH trap and then into anaerobic deionized water. Aliquots of the nitric oxide solutions (final concentration: 75-300 nM) were added to the rings (in the presence or absence of 100 μM MnTBAP) and relaxant responses were recorded.
substance,measurement,setting,value
Mn(III) tetrakis (4-benzoic acid)porphyrin [MnTBAP],IC50,[1],30 µM
same,"PQ^++-, NMDA- and KA-mediated decreases of aconitase activity",aconitase,markedly inhibited
same,relaxations in vascular rings in response to authentic NO,[2],did not inhibit
